Results on 17 compounds are retold here after US11807624B2, “Substituted pyrimidinones as agonists of the APJ receptor” (AMGEN INC., priority 2018, dated 2023).

As usually defined, the EC50 is the concentration that produces a half-maximal response.

human APJ receptor, sequence (P35414 whole entry): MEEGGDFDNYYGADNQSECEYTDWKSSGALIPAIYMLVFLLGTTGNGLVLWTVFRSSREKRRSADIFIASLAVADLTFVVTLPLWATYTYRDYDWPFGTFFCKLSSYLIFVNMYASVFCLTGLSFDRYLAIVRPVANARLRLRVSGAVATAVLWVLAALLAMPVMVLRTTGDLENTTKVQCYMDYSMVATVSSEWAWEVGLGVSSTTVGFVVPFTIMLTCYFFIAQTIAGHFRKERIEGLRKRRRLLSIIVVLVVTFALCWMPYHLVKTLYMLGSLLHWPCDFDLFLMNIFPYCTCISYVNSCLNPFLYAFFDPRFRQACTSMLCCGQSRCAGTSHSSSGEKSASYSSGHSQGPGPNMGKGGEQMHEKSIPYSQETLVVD
human AT1R receptor expressed in the CHO cell line, sequence (P30556 whole entry): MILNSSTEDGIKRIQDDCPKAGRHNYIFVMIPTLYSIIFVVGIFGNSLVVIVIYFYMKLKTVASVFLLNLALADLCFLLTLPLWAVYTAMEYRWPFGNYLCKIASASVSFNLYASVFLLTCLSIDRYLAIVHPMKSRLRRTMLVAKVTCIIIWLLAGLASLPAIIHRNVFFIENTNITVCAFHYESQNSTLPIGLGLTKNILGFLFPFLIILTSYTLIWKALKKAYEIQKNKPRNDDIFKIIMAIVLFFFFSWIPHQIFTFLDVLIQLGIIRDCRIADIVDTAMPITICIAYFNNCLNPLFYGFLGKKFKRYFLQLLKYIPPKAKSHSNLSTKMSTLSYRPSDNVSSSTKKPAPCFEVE

The first assay has as its target human APJ receptor (Homo sapiens (Human), UniProt P35414). The assay can be described thus: [35S]GTPγS binding assay (hAPJ SPA). The class given is biochemical. The following applies: membranes from CHO cells stably expressing human APJ receptor, read-out: Activity hAPJ SPA EC50 IP. As to the method: [^35S]GTPγS Binding The human APJ receptor was cloned by polymerase chain reaction and the gene encoding the receptor was subcloned in pFLAG-CMV™-3 expression vector (Sigma, Saint Louis, Mo. USA) in-house at Amgen. A GTPγS binding assay was performed on membranes prepared from CHO cells stably expressing human APJ receptor. The optimum experimental conditions for the concentrations of GDP, MgCl2, and NaCl in the assay buffer were initially determined. […] Incubation was at RT for 90 min and the microplate was read using a ViewLux™ ultra HTS Microplate Imager (PerkinElmer, Inc.). All the results presented are means of several independent experiments and analyzed by non-linear regression methods using the commercially available program Prism (GraphPad, San Diego, Calif.) providing the EC50 values detailed in Table 3.
A general note: GTPγS resists hydrolysis and so accumulates on activated G proteins.
Regarding `CCCCc1nc(O)c(NS(=O)(=O)[C@H]2CCCN(c3ncc(F)cn3)C2)c(=O)n1-c1c(OC)cccc1OC` (single isomer, unassigned) [Example 4.7, (S)-N-(2-butyl-1-(2,6-dimethoxyphenyl)-4-hydroxy-6-oxo-1,6-dihydropyrimidin-5-yl)-1-(5-fluoropyrimidin-2-yl)piperidine-3-sulfonamide or (R)-N-(2-butyl-1-(2,6-dimethoxyphenyl)-4-hydroxy-6-oxo-1,6-dihydropyrimidin-5-yl)-1-(5-fluoropyrimidin-2-yl)piperidine-3-sulfonamide], the EC50 was 0.078 µM.

As to `CCCCc1nc(O)c(NS(=O)(=O)C[C@H](C)c2ncc(F)cn2)c(=O)n1-c1c(OC)cccc1OC` (single isomer, unassigned) [Example 4.5, (R)-N-(2-butyl-1-(2,6-dimethoxyphenyl)-4-hydroxy-6-oxo-1,6-dihydropyrimidin-5-yl)-2-(5-fluoropyrimidin-2-yl)propane-1-sulfonamide or (S)-N-(2-butyl-1-(2,6-dimethoxyphenyl)-4-hydroxy-6-oxo-1,6-dihydropyrimidin-5-yl)-2-(5-fluoropyrimidin-2-yl)propane-1-sulfonamide], the EC50 came to 0.011 µM.

For the compound `CCCCc1nc(O)c(NS(=O)(=O)Cc2ccccc2)c(=O)n1-c1c(OC)cccc1OC` [Example 4.3, N-(2-butyl-1-(2,6-dimethoxyphenyl)-4-hydroxy-6-oxo-1,6-dihydropyrimidin-5-yl)-1-phenylmethanesulfonamidesulfonamide], the EC50 worked out at 0.194 µM.

Consider `CCCCc1nc(O)c(NS(=O)(=O)c2ccccc2)c(=O)n1-c1c(OC)cccc1OC` [Example 4.4a, N-(2-butyl-1-(2,6-dimethoxyphenyl)-4-hydroxy-6-oxo-1,6-dihydropyrimidin-5-yl)benzenesulfonamide], for which the EC50 amounted to 0.244 µM.

In the case of `CCCCc1nc(O)c(NS(=O)(=O)C2CCCCC2)c(=O)n1-c1c(OC)cccc1OC` [Example 4.9, N-(2-butyl-1-(2,6-dimethoxyphenyl)-4-hydroxy-6-oxo-1,6-dihydro-5-pyrimidinyl)cyclohexanesulfonamide], the EC50 stood at 0.193 µM.

Consider `CCCCc1nc(O)c(NS(=O)(=O)[C@@H](C)[C@H](OC)c2ncc(C)cn2)c(=O)n1-c1c(OC)cccc1OC` [Example 4.8, (1R,2S)-N-(2-butyl-1-(2,6-dimethoxyphenyl)-4-hydroxy-6-oxo-1,6-dihydropyrimidin-5-yl)-1-methoxy-1-(5-methylpyrimidin-2-yl)propane-2-sulfonamide], for which the EC50 turned out to be 0.086 µM.

For `COc1cccc(OC)c1-n1c(-c2ccccc2)nc(O)c(NS(=O)(=O)CCc2ncc(F)cn2)c1=O` [Example 4.24, N-[1-(2,6-dimethoxyphenyl)-4-hydroxy-6-oxo-2-phenyl-pyrimidin-5-yl]-2-(5-fluoropyrimidin-2-yl)ethanesulfonamide], the EC50 is 0.0015 µM.

Regarding `CCCCc1nc(O)c(NS(=O)(=O)[C@@H](C)[C@H](C)c2ncc(F)cn2)c(=O)n1-c1c(OC)cccc1OC` [Example 4.2, (2S,3R)-N-(2-butyl-1-(2,6-dimethoxyphenyl)-4-hydroxy-6-oxo-1,6-dihydropyrimidin-5-yl)-3-(5-fluoropyrimidin-2-yl)butane-2-sulfonamide], the EC50 turned out to be 0.027 µM.

Take `CCCCc1nc(O)c(NS(=O)(=O)CCc2ccccc2)c(=O)n1-c1c(OC)cccc1OC` [Example 4.4b, N-(2-butyl-1-(2,6-dimethoxyphenyl)-4-hydroxy-6-oxo-1,6-dihydropyrimidin-5-yl)-2-phenylethane-1-sulfonamide]: the EC50 was 0.193 µM.

Turning to `CCCCc1nc(O)c(NS(=O)(=O)C[C@@H](C)c2ncc(F)cn2)c(=O)n1-c1c(OC)cccc1OC` (single isomer, unassigned) [Example 4.6, (S)-N-(2-butyl-1-(2,6-dimethoxyphenyl)-4-hydroxy-6-oxo-1,6-dihydropyrimidin-5-yl)-2-(5-fluoropyrimidin-2-yl)propane-1-sulfonamide or (R)-N-(2-butyl-1-(2,6-dimethoxyphenyl)-4-hydroxy-6-oxo-1,6-dihydropyrimidin-5-yl)-2-(5-fluoropyrimidin-2-yl)propane-1-sulfonamide], the EC50 was 0.02 µM.

For `CCCCc1nc(O)c(NS(=O)(=O)C(C)C)c(=O)n1-c1c(OC)cccc1OC` [Example 4.1, N-(2-butyl-1-(2,6-dimethoxyphenyl)-4-hydroxy-6-oxo-1,6-dihydropyrimidin-5-yl)propane-2-sulfonamide], the EC50 amounted to 0.745 µM.

Take `COc1cccc(OC)c1-n1c(C2CCCC2)nc(O)c(NS(=O)(=O)CCc2ncc(F)cn2)c1=O` [Example 4.17, N-[2-cyclopentyl-1-(2,6-dimethoxyphenyl)-4-hydroxy-6-oxo-pyrimidin-5-yl]-2-(5-fluoropyrimidin-2-yl)ethanesulfonamide]: the EC50 was found to be 0.0028 µM.

`CCCCc1nc(O)c(NS(=O)(=O)CCc2ncc(F)cn2)c(=O)n1-c1c(OC)cccc1OC` [Example 4.0, N-(2-Butyl-1-(2,6-dimethoxyphenyl)-4-hydroxy-6-oxo-1,6-dihydropyrimidin-5-yl)-2-(5-fluoropyrimidin-2-yl)ethane-1-sulfonamide]: the EC50 was 0.03 µM.

A further assay addresses human AT1R receptor expressed in the CHO cell line (Homo sapiens (Human), UniProt P30556).
Experiment: not given
Conditions: AT1R expressed alone, no APJ expression.
Take pyr apelin-13: the “cooperativity on AngII-induced IP1 response” value is “no positive cooperativity observed”.

A further assay concerns heart failure rats. The assay can be described thus: Cardiac function in heart failure rats in vivo. The following applies: captopril alone, acute settings. More on the design: species or system rat. The source says: The interaction between […] (ACE2) and Apelin biology is complicated. To investigate the interaction between the Apelin-APJ and ACE signalling pathways, we examined the improvement in cardiac function with APJ small molecule agonists in the presence of ACE inhibitor captopril in heart failure rats in vivo. […] However, in the presence of an APJ agonist, there was a shift in potency to the left with marked improvement in contractility and ejection fraction without changes in heart rate. These findings provide a new reference for the understanding of the regulation of ACE2 for the renin angiotensin aldosterone system (RAAS), independent of AT1R signaling and offer new potential drug targets for the treatment of diseases such as hypertension and heart failure. This work clearly establishes that combination of an agonist of the APJ receptor with an ARB such as losartan and/or with an ACE inhibitor such as captopril which may play an important role in providing greater efficacy in treating heart failure patients, for example in improving contractility and ejection fraction without changing the heart rate.
With `C[C@H](CS)C(=O)N1CCC[C@H]1C(=O)O` [Captopril, captopril], the “improvement in contractility or ejection fraction” value is recorded as “does not show a marked improvement in contractility or ejection fraction acutely”.

For the next assay, the system named is isolated cardiomyocyctes.
Experiment: not given
Conditions: isolated cardiomyocytes, exogenous apelin; cited from earlier work.
Take apelin: the “increase in sarcomere shortening” value is “up to 140%”.

The target in another assay is human APJ-AT1R (angiotensin Type 1) double stable CHO cell line (Homo sapiens (Human), UniProt P35414). The assay can be described thus: IP1 accumulation (TR-FRET), APJ-AT1R double stable CHO cell line. The class given is cell-based. The following applies: in the presence of AngII and APJ small molecule agonists.
human APJ-AT1R (angiotensin Type 1) double stable CHO cell line, sequence (P35414 whole entry): as the sequence (P35414 whole entry) above
Procedure: Single and double stable recombinant cell lines were generated for human APJ and the AT1R receptor in CHO K1 cells tagged either with FLAG or hemagglutinin (HA) tag. Briefly, the CHO-K1 APJ/AT1R cells were seeded in culture medium of DMEM-F12 and 10% FBS at a density of 15 k/well in a 96 well plate overnight. The next day, the culture medium was replaced with medium containing no serum for 4 hours. The compound AngII at a range of concentrations (1 pM-10 μM) with or without different concentrations of APJ agonists were diluted in stimulation buffer and added to the cell plate. The plate was sealed and incubated for 1 hour. This was followed by addition of IP-d2 conjugate followed by europium cryptate antibody conjugate into the wells. The plate was sealed, followed with incubation for 2 hours at RT. Time-resolved fluorescence resonance energy (TR-FRET) at 620 nm and 665 nm was measured after 2 horns with an Envision reader. The signal ratios and delta F were calculated and the amount of IP1 produced was inversely proportional to the TR-FRET ratio, 665/620 nm.
Turning to `CCCCc1nc(Cl)c(CO)n1Cc1ccc(-c2ccccc2-c2nn[nH]n2)cc1` [losartan], the “effect of AT1R blockade on APJ agonist-induced cooperativity” value is “relieved this cooperativity and resulted in synergistic effects of enhancing the efficacy of the APJ receptor”.
